Assay results reported in patent publication US8394442B2, “Process for the preparation of a flavoring concentrate, and a flavoring concentrate” (SYMRISE AG, priority 2007, dated 2013).
Like-named read-outs stand apart in the source and are kept apart here.

Experiments:
[1] = log Pow: distribution coefficient between 1-octanol and water; settings: 1-octanol/water
[2] = log Pow* calculated by Formula 2 from log Pow and the polarity parameter P′(x) of the ethanol/water mixture
[3] = solvent ethanol, proportion 10%
[4] = solvent ethanol, proportion 30%
[5] = solvent ethanol, proportion 40%
[6] = solvent ethanol, proportion 50%
[7] = solvent ethanol, proportion 60%
[8] = solvent ethanol, proportion 70%
[9] = solvent ethanol, proportion 80%
[10] = solvent ethanol, proportion 90%
[11] = solvent ethanol, proportion 100%

C=C(C)[C@@H]1CCC2=CC(=O)C[C@@H](C)[C@]2(C)C1 [Nootkatone]
log Pow [1]: 4.10
log Pow* (P′ 2%) ([2]; solvent ethanol, proportion 2%): 4.05
log Pow* (P′ 4%) ([2]; solvent ethanol, proportion 4%): 4.01
log Pow* (P′ 6%) ([2]; solvent ethanol, proportion 6%): 3.96
log Pow* (P′ 8%) ([2]; solvent ethanol, proportion 8%): 3.92
log Pow* (P′ 10%) [2, 3]: 3.88
log Pow* (P′ 30%) [2, 4]: 3.57
log Pow* (P′ 40%) [2, 5]: 3.46
log Pow* (P′ 50%) [2, 6]: 3.36
log Pow* (P′ 60%) [2, 7]: 3.28
log Pow* (P′ 70%) [2, 8]: 3.21
log Pow* (P′ 80%) [2, 9]: 3.15
log Pow* (P′ 90%) [2, 10]: 3.10
log Pow* (P′ 100%) [2, 11]: 3.05

Ethyldimethylpyrazine
log Pow [1]: 1.60
log Pow* (P′ 2%) ([2]; solvent ethanol, proportion 2%): 1.48
log Pow* (P′ 4%) ([2]; solvent ethanol, proportion 4%): 1.36
log Pow* (P′ 6%) ([2]; solvent ethanol, proportion 6%): 1.25
log Pow* (P′ 8%) ([2]; solvent ethanol, proportion 8%): 1.14
log Pow* (P′ 10%) [2, 3]: 1.04
log Pow* (P′ 30%) [2, 4]: 0.25
log Pow* (P′ 40%) [2, 5]: −0.05
log Pow* (P′ 50%) [2, 6]: −0.29
log Pow* (P′ 60%) [2, 7]: −0.50
log Pow* (P′ 70%) [2, 8]: −0.68
log Pow* (P′ 80%) [2, 9]: −0.83
log Pow* (P′ 90%) [2, 10]: −0.97
log Pow* (P′ 100%) [2, 11]: −1.09

CC/C=C\CC1CCCC(=O)O1 (stereo not drawn) [Jasmine lactone]
log Pow [1]: 2.47
log Pow* (P′ 2%) ([2]; solvent ethanol, proportion 2%): 2.39
log Pow* (P′ 4%) ([2]; solvent ethanol, proportion 4%): 2.31
log Pow* (P′ 6%) ([2]; solvent ethanol, proportion 6%): 2.24
log Pow* (P′ 8%) ([2]; solvent ethanol, proportion 8%): 2.17
log Pow* (P′ 10%) [2, 3]: 2.11
log Pow* (P′ 30%) [2, 4]: 1.59
log Pow* (P′ 40%) [2, 5]: 1.40
log Pow* (P′ 50%) [2, 6]: 1.25
log Pow* (P′ 60%) [2, 7]: 1.11
log Pow* (P′ 70%) [2, 8]: 1.00
log Pow* (P′ 80%) [2, 9]: 0.90
log Pow* (P′ 90%) [2, 10]: 0.81
log Pow* (P′ 100%) [2, 11]: 0.73

CC1=CCC(C(C)(C)S)CC1 (stereo not drawn) [p-menthenethiol-1,8]
log Pow [1]: 4.04
log Pow* (P′ 2%) ([2]; solvent ethanol, proportion 2%): 3.99
log Pow* (P′ 4%) ([2]; solvent ethanol, proportion 4%): 3.94
log Pow* (P′ 6%) ([2]; solvent ethanol, proportion 6%): 3.90
log Pow* (P′ 8%) ([2]; solvent ethanol, proportion 8%): 3.86
log Pow* (P′ 10%) [2, 3]: 3.82
log Pow* (P′ 30%) [2, 4]: 3.50
log Pow* (P′ 40%) [2, 5]: 3.39
log Pow* (P′ 50%) [2, 6]: 3.29
log Pow* (P′ 60%) [2, 7]: 3.21
log Pow* (P′ 70%) [2, 8]: 3.14
log Pow* (P′ 80%) [2, 9]: 3.08
log Pow* (P′ 90%) [2, 10]: 3.02
log Pow* (P′ 100%) [2, 11]: 2.98

CC(=O)/C=C/C1=C(C)CCCC1(C)C [beta-ionone]
log Pow [1]: 3.85
log Pow* (P′ 2%) ([2]; solvent ethanol, proportion 2%): 3.80
log Pow* (P′ 4%) ([2]; solvent ethanol, proportion 4%): 3.75
log Pow* (P′ 6%) ([2]; solvent ethanol, proportion 6%): 3.70
log Pow* (P′ 8%) ([2]; solvent ethanol, proportion 8%): 3.66
log Pow* (P′ 10%) [2, 3]: 3.62
log Pow* (P′ 30%) [2, 4]: 3.29
log Pow* (P′ 40%) [2, 5]: 3.17
log Pow* (P′ 50%) [2, 6]: 3.06
log Pow* (P′ 60%) [2, 7]: 2.98
log Pow* (P′ 70%) [2, 8]: 2.90
log Pow* (P′ 80%) [2, 9]: 2.84
log Pow* (P′ 90%) [2, 10]: 2.78
log Pow* (P′ 100%) [2, 11]: 2.73

CC(=O)C(C)=O [Diacetyl]
log Pow [1]: −1.33
log Pow* (P′ 2%) ([2]; solvent ethanol, proportion 2%): −1.48
log Pow* (P′ 4%) ([2]; solvent ethanol, proportion 4%): −1.62
log Pow* (P′ 6%) ([2]; solvent ethanol, proportion 6%): −1.76
log Pow* (P′ 8%) ([2]; solvent ethanol, proportion 8%): −1.88
log Pow* (P′ 10%) [2, 3]: −2.00
log Pow* (P′ 30%) [2, 4]: −2.96
log Pow* (P′ 40%) [2, 5]: −3.31
log Pow* (P′ 50%) [2, 6]: −3.60
log Pow* (P′ 60%) [2, 7]: −3.85
log Pow* (P′ 70%) [2, 8]: −4.07
log Pow* (P′ 80%) [2, 9]: −4.25
log Pow* (P′ 90%) [2, 10]: −4.42
log Pow* (P′ 100%) [2, 11]: −4.56

CCCC(=O)OCC [Ethylbutyrate]
log Pow [1]: 1.77
log Pow* (P′ 2%) [2]: 1.66
log Pow* (P′ 4%) [2]: 1.55
log Pow* (P′ 6%) [2]: 1.45
log Pow* (P′ 8%) [2]: 1.35
log Pow* (P′ 10%) [2]: 1.26
log Pow* (P′ 30%) [2]: 0.55
log Pow* (P′ 40%) [2]: 0.28
log Pow* (P′ 50%) [2]: 0.06
log Pow* (P′ 60%) [2]: −0.13
log Pow* (P′ 70%) [2]: −0.29
log Pow* (P′ 80%) [2]: −0.43
log Pow* (P′ 90%) [2]: −0.55
log Pow* (P′ 100%) [2]: −0.66

CC(C)CCO [3-mebutanol, 3-methylbutanol]
log Pow [1]: 1.28
log Pow* (P′ 2%) [2]: 1.12
log Pow* (P′ 4%) [2]: 0.98
log Pow* (P′ 6%) [2]: 0.84
log Pow* (P′ 8%) [2]: 0.71
log Pow* (P′ 10%) [2]: 0.58
log Pow* (P′ 30%) [2]: −0.41
log Pow* (P′ 40%) [2]: −0.78
log Pow* (P′ 50%) [2]: −1.08
log Pow* (P′ 60%) [2]: −1.34
log Pow* (P′ 70%) [2]: −1.57
log Pow* (P′ 80%) [2]: −1.76
log Pow* (P′ 90%) [2]: −1.93
log Pow* (P′ 100%) [2]: −2.08

CCC(C)CO (stereo not drawn) [2-mebutanol, 2-methylbutanol]
log Pow [1]: 1.29
log Pow* (P′ 2%) ([2]; solvent ethanol, proportion 2%): 1.14
log Pow* (P′ 4%) ([2]; solvent ethanol, proportion 4%): 0.99
log Pow* (P′ 6%) ([2]; solvent ethanol, proportion 6%): 0.85
log Pow* (P′ 8%) ([2]; solvent ethanol, proportion 8%): 0.72
log Pow* (P′ 10%) [2, 3]: 0.59
log Pow* (P′ 30%) [2, 4]: −0.39
log Pow* (P′ 40%) [2, 5]: −0.75
log Pow* (P′ 50%) [2, 6]: −1.05
log Pow* (P′ 60%) [2, 7]: −1.31
log Pow* (P′ 70%) [2, 8]: −1.53
log Pow* (P′ 80%) [2, 9]: −1.73
log Pow* (P′ 90%) [2, 10]: −1.89
log Pow* (P′ 100%) [2, 11]: −2.04

CC(C)=CCCC(C)=CC=O [Citral]
log Pow [1]: 3.17
log Pow* (P′ 2%) [2]: 3.11
log Pow* (P′ 4%) [2]: 3.05
log Pow* (P′ 6%) [2]: 2.99
log Pow* (P′ 8%) [2]: 2.94
log Pow* (P′ 10%) [2]: 2.89
log Pow* (P′ 30%) [2]: 2.49
log Pow* (P′ 40%) [2]: 2.34
log Pow* (P′ 50%) [2]: 2.22
log Pow* (P′ 60%) [2]: 2.11
log Pow* (P′ 70%) [2]: 2.02
log Pow* (P′ 80%) [2]: 1.94
log Pow* (P′ 90%) [2]: 1.87
log Pow* (P′ 100%) [2]: 1.81

CCC/C=C/C=O [2E-hexenal]
log Pow [1]: 1.61
log Pow* (P′ 2%) ([2]; solvent ethanol, proportion 2%): 1.49
log Pow* (P′ 4%) ([2]; solvent ethanol, proportion 4%): 1.37
log Pow* (P′ 6%) ([2]; solvent ethanol, proportion 6%): 1.26
log Pow* (P′ 8%) ([2]; solvent ethanol, proportion 8%): 1.15
log Pow* (P′ 10%) [2, 3]: 1.05
log Pow* (P′ 30%) [2, 4]: 0.26
log Pow* (P′ 40%) [2, 5]: −0.03
log Pow* (P′ 50%) [2, 6]: −0.27
log Pow* (P′ 60%) [2, 7]: −0.47
log Pow* (P′ 70%) [2, 8]: −0.65
log Pow* (P′ 80%) [2, 9]: −0.81
log Pow* (P′ 90%) [2, 10]: −0.94
log Pow* (P′ 100%) [2, 11]: −1.06

C=CC(C)(O)CCC=C(C)C (stereo not drawn) [Linalool]
log Pow [1]: 3.28
log Pow* (P′ 2%) [2]: 3.22
log Pow* (P′ 4%) [2]: 3.16
log Pow* (P′ 6%) [2]: 3.11
log Pow* (P′ 8%) [2]: 3.06
log Pow* (P′ 10%) [2]: 3.01
log Pow* (P′ 30%) [2]: 2.62
log Pow* (P′ 40%) [2]: 2.48
log Pow* (P′ 50%) [2]: 2.36
log Pow* (P′ 60%) [2]: 2.26
log Pow* (P′ 70%) [2]: 2.17
log Pow* (P′ 80%) [2]: 2.09
log Pow* (P′ 90%) [2]: 2.03
log Pow* (P′ 100%) [2]: 1.97

CCCSSCCC [Dipropyldisulfide]
log Pow [1]: 3.90
log Pow* (P′ 2%) [2]: 3.85
log Pow* (P′ 4%) [2]: 3.80
log Pow* (P′ 6%) [2]: 3.76
log Pow* (P′ 8%) [2]: 3.71
log Pow* (P′ 10%) [2]: 3.67
log Pow* (P′ 30%) [2]: 3.34
log Pow* (P′ 40%) [2]: 3.22
log Pow* (P′ 50%) [2]: 3.12
log Pow* (P′ 60%) [2]: 3.04
log Pow* (P′ 70%) [2]: 2.97
log Pow* (P′ 80%) [2]: 2.90
log Pow* (P′ 90%) [2]: 2.85
log Pow* (P′ 100%) [2]: 2.80

CS [Methylmercaptan]
log Pow [1]: 0.65
log Pow* (P′ 2%) ([2]; solvent ethanol, proportion 2%): 0.34
log Pow* (P′ 4%) ([2]; solvent ethanol, proportion 4%): 0.05
log Pow* (P′ 6%) ([2]; solvent ethanol, proportion 6%): −0.22
log Pow* (P′ 8%) ([2]; solvent ethanol, proportion 8%): −0.48
log Pow* (P′ 10%) [2, 3]: −0.73
log Pow* (P′ 30%) [2, 4]: −2.68
log Pow* (P′ 40%) [2, 5]: −3.40
log Pow* (P′ 50%) [2, 6]: −4.00
log Pow* (P′ 60%) [2, 7]: −4.51
log Pow* (P′ 70%) [2, 8]: −4.95
log Pow* (P′ 80%) [2, 9]: −5.33
log Pow* (P′ 90%) [2, 10]: −5.67
log Pow* (P′ 100%) [2, 11]: −5.97

CCCSSC [Methylpropyldisulfide]
log Pow [1]: 2.83
log Pow* (P′ 2%) [2]: 2.76
log Pow* (P′ 4%) [2]: 2.69
log Pow* (P′ 6%) [2]: 2.63
log Pow* (P′ 8%) [2]: 2.57
log Pow* (P′ 10%) [2]: 2.51
log Pow* (P′ 30%) [2]: 2.06
log Pow* (P′ 40%) [2]: 1.90
log Pow* (P′ 50%) [2]: 1.76
log Pow* (P′ 60%) [2]: 1.64
log Pow* (P′ 70%) [2]: 1.54
log Pow* (P′ 80%) [2]: 1.46
log Pow* (P′ 90%) [2]: 1.38
log Pow* (P′ 100%) [2]: 1.31
